Patent US7192931B2, “Treatment of demyelinating diseases” (Neuren Pharmaceuticals Ltd., priority 2000, dated 2007)

What was measured:
[1] = tested on: oligodendrocytes; conditions: Smith et al., 2000, Pitt et al.; cited from earlier work
[2] = tested on: C57Bl/6 mice with MOG35-55 peptide-induced EAE; experiment: Clinical scoring of MOG35-55-induced EAE; format: in vivo, mouse; conditions: for effectiveness of prolonged treatment on disease severity / effect on advanced EAE (clinical symptoms): advanced disease; for effectiveness of prolonged treatment on disease severity: prolonged treatment from day 60 (FIG. 1C); for effect on advanced EAE (clinical symptoms): mAb three injections from day 51, neuroprotectors 7 days from day 60 (FIG. 1B); for effect on development of EAE (clinical symptoms): early disease, treatment from day 35 (FIG. 1A)
Description: C57Bl/6 mice (8–10 week old) were injected subcutaneously in one flank with 300 μg of MOG35-55 peptide ([…]: SEQ ID NO:1) synthesized by Mimotapes Pty Ltd, Clayton, Australia and emulsified in CFA containing 500 μg of Mycobacterium tuberculosis H37Ra (DIFCO Laboratories, Detrit, USA). They also received 500 ng of pertussis toxin (List Biological Laboratories, CA, USA) in 200 μl PBS intravenously via the tail vein, followed 48 hours later by a second dose. A second injection of MOG peptide was given in the absence of pertussis toxin one week later in the opposite flank, as described previously (Kanwar et al., 2000b).
Two treatment protocols were employed, involving the treatment of early disease, versus advanced disease. For early disease, reagents were administered at day 35 (following MOG injection). Antibody was administered thrice on alternate days, whereas neuroprotectors were given daily for 6 days, where 50% of reagent was given ip and 50% iv. In the treatment of advanced disease, therapy as above was initiated at day 60, with either three or eight anti-MAdCAM-1 mAb injections, and neuroprotectors given daily for either 7 or 18 days.
The mice were monitored daily and scored according to the following scale: 0, no clinical signs of EAE; 1, limp tail; 2, partial hind limb paralysis; 3, complete hind limb paralysis; 4, complete hind limb and partial fore limb paralysis; 5, paralysis extending to diaphragm; 6, hind and fore limb paralysis; 7, death due to EAE. Paralysis extending to the diaphragm was denoted as difficulty in remaining upright. […] The daily mean clinical score for each group is the mean disease score of at least five mice. The body weight of animals was measured regularly throughout the experiments. The expanded disability status scale for EAE treated mice was scored using an earlier published scoring system (Villoslada et al. 2000).
The rat hybridoma MECA-367 (rat IgG2a),5 which secretes a mAb against mouse MAdCAM-1 was either provided by Dr Eugene Butcher, Stanford University, Stanford, Calif. (FIGS. 1A and B), or obtained directly from the American Type Culture Collection, Rockville, Md. (FIG. 1C, and remainder of studies). Rat IgG obtained from Sigma Co., USA, served as a control. Antibodies were administered into the tail vein (70% of mAb) and intraperitoneally (30% of mAb) at 10 mg/Kg separately or in combination on alternate days at the time points indicated (FIGS. 1–4). The rat IgG control antibody was also administered at 10 mg/Kg. Backbones from sacrificed mice were frozen in isopentane at −70° C. Transverse 10 μm sections made through the spinal cord of control and diseased mice, in each case made at the same levels of the cord, were mounted on poly L-lysine-coated slides, and stained with haematoxylin and eosin.

[3] = tested on: EAE; conditions: Smith et al., 2000, Pitt et al.; cited from earlier work
[4] = tested on: N-methyl-D-aspartate (NMDA) receptor; conditions: U.S. Pat. No. 5,804,550; cited from earlier work
[5] = tested on: hippocampus neurons; conditions: Saura et al., 1999; cited from earlier work

For NS(=O)(=O)c1cccc2c1c([N+](=O)[O-])cc1nc(O)c(O)nc12 [NBQX, 2,3-dihydroxy-6-nitro-7-sulfamoylbenzo(f)quinoxaline], the “excitotoxic effects of glutamate on oligodendrocytes” value [1] is listed as “inhibits the excitotoxic effects of glutamate on oligodendrocytes”, the “effectiveness of prolonged treatment on disease severity” value [2] is listed as “NBQX+GPE+anti-MAdCAM-1>NBQX+GPE>NBQX>GPE” and the “effect on advanced EAE (clinical symptoms)” value [2] is listed as “only caused temporary remission”. The “effect on development of EAE (clinical symptoms)” value [2] was “suppressed EAE, but to a greater extent than achieved with GPE” and the “pathogenesis of EAE” value [3] was “slightly ameliorates the pathogenesis of EAE”.

For Gly-Pro-Glu [GPE], the “glutamate binding to the NMDA receptor” value [4] is given as “inhibits glutamate binding”, the “effectiveness of prolonged treatment on disease severity” value [2] is given as “NBQX+GPE+anti-MAdCAM-1>NBQX+GPE>NBQX>GPE” and the “effect on advanced EAE (clinical symptoms)” value [2] is given as “only caused temporary remission”. The “effect on development of EAE (clinical symptoms)” value [2] was “suppressed EAE, up to 27 days after suspension of treatment” and the “neuronal death in the hippocampus injured by NMDA” value [5] was “prevents neuronal death”.
